Laboratory results as given in patent US20260027048A1, “GEMFIBROZIL FORMULATION” (POLARYX THERAPEUTICS, INC., priority 2022, published 2026).
Like-named read-outs stand apart in the source and are kept apart here.

How the values were obtained:
[1] = Solubility of gemfibrozil in PEG 400 over a concentration range; format: physicochemical; conditions: standing upright at room temperature overnight
Procedure: A concentrated stock solution of gemfibrozil was prepared in PEG 400. Gemfibrozil was evaluated for its solubility in PEG 400 over concentration range to determine an upper concentration that could be used to prepare a stock solution of gemfibrozil in liquid form. On the day of preparation gemfibrozil was dissolved in the PEG 400 at the indicated concentration. All samples were clear upon mixing. Following mixing, samples were stored standing upright at room temperature overnight.

[2] = cited from earlier work
[3] = Solubility testing of gemfibrozil in solvents/cosolvents at 12 mg/ml and 32 mg/ml; format: physicochemical; conditions: tested at 12 and 32 mg/ml
Procedure: Two doses of gemfibrozil were considered for each solvent/cosolvent. A low dose gemfibrozil preparation: 60 mg gemfibrozil in 5 ml of solvent/cosolvent (12 mg/ml dose), and a high dose gemfibrozil preparation: 160 mg gemfibrozil in 5 mL of solvent/cosolvent (32 mg/ml dose). Table 5 below illustrates that the first six solvent/cosolvents achieved gemfibrozil solubilization at both the 12 mg/ml dose and the 32 mg/ml dose. The solvent/cosolvents included the sodium carbonate/bicarbonate buffer having a pH of 10.5, polyethylene glycol (PEG) 400, glyceryl monolinoleate, propylene glycol dicaprylate/dicaprate, propylene glycol, and glyceryl monooleate.
The citrate buffer having a pH of 4.5 with tocopheryl polyethylene glycol succinate (TPGS) achieved gemfibrozil solubilization only the 12 mg/ml dose. The remainder of the solvents/cosolvents were not able to solubilize gemfibrozil at either the low dose or the high dose concentration.

solubility limit of gemfibrozil in PEG 400 [1]: 21.3 % w/w | Gemfibrozil Solubility ([3]; Glycerol and Polysorbate 80): Not soluble | Gemfibrozil Solubility ([3]; Glyceryl monolinoleate): Soluble at 12 mg/ml and 32 mg/ml | Gemfibrozil Solubility ([3]; Glyceryl monooleate): Soluble at 12 mg/ml and 32 mg/ml | Gemfibrozil Solubility ([3]; Polyethylene glycol 400): Soluble at 12 mg/ml and 32 mg/ml | Gemfibrozil Solubility ([3]; Propylene glycol dicaprylate/dicaprate): Soluble at 12 mg/ml and 32 mg/ml | Gemfibrozil Solubility ([3]; Propylene glycol): Soluble at 12 mg/ml and 32 mg/ml | Gemfibrozil Solubility ([3]; Soybean oil): Not soluble | Gemfibrozil Solubility ([3]; pH 4.5 Citrate buffer and Poloxamer P188): Not soluble | Gemfibrozil Solubility ([3]; pH 4.5 Citrate buffer and Solutol HS15): Not soluble | Gemfibrozil Solubility ([3]; pH 4.5 citrate buffer and TPGS): Soluble at 12 mg/ml | Gemfibrozil Solubility ([3]; pH 10.5 Sodium carbonate/bicarbonate buffer): Soluble at 12 mg/ml and 32 mg/ml
SMILES: Cc1ccc(C)c(OCCCC(C)(C)C(=O)O)c1 [Gemfibrozil, 5-(2,5-dimethylphenoxy)-2,2-dimethyl-pentanoic acid]
solubility of gemfibrozil ([2]; in DMSO): ~16 mg/mL | solubility of gemfibrozil ([2]; in ethanol): approximately 30 mg/ml | solubility of gemfibrozil ([2]; in water): approximately 0.03 mg/ml
